# In patent publication US20140235592A1, “SUBSTITUTED 6-METHOXY-4-AMINO-N-PHENYL-2-NAPHTAMIDES AS SPHINGOSINE RECEPTOR MODULATORS” (Allergan, Inc., priority 2013, published 2014):
# Molecular target: T1, human S1P1 receptor (Homo sapiens, UniProt P21453)
# T1 construct: expressed in transfected cells; membranes used
# Test: GTP γ35S binding assay for S1P1 activity
# Assay type: biochemical
# Conditions: membranes of cells stably expressing the S1P1 receptor, test concentrations 0.08 to 5,000 nM
# Description: Compounds were tested for S1 P1 activity using the GTP γ^35S binding assay. These compounds may be assessed for their ability to activate or block activation of the human S1 P1 receptor in cells stably expressing the S1 P1 receptor. GTP γ^35S binding was measured in the medium containing (mM) HEPES 25, pH 7.4, MgCl2 10, NaCl 100, dithiothreitol 0.5, digitonin 0.003%, 0.2 nM GTP γ^355, and 5 μg membrane protein in a volume of 150 μl. Test compounds were included in the concentration range from 0.08 to 5,000 nM unless indicated otherwise. Membranes were incubated with 100 μM 5′-adenylylimmidodiphosphate for 30 min, and subsequently with 10 μM GDP for 10 min on ice. Drug solutions and membrane were mixed, and then reactions were initiated by adding GTP γ^35S and continued for 30 min at 25° C. Reaction mixtures were filtered over Whatman GF/B filters under vacuum, and washed three times with 3 mL of ice-cold buffer (HEPES 25, pH7.4, MgCl2 10 and NaCl 100). Filters were dried and mixed with scintillant, and counted for ^35S activity using a β-counter. Agonist-induced GTP γ^355 binding was obtained by subtracting that in the absence of agonist. Binding data were analyzed using a non-linear regression method. In case of antagonist assay, the reaction mixture contained 10 nM S1P in the presence of test antagonist at concentrations ranging from 0.08 to 5000 nM.
# T1 sequence (P21453 whole entry): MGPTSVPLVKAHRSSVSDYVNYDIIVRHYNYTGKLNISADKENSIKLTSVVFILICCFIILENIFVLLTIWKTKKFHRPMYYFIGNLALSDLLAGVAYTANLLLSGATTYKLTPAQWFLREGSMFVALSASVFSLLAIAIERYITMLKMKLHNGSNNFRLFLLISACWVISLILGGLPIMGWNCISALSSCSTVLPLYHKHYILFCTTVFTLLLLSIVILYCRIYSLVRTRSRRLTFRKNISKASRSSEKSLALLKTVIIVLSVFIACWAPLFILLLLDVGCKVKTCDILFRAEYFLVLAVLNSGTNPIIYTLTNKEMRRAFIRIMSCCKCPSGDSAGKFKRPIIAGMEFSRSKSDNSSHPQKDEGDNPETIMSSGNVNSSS
row,SMILES,EC50
1,"COc1ccc2cc(C(=O)Nc3ccc(CNCCCP(=O)(O)O)cc3)cc(N(C)CC3CC3)c2c1 [Compound 3, [3-({4-[({4-[(cyclopropylmethyl)(methyl)amino]-6-methoxynaphthalen-2-yl}carbonyl)amino]benzyl}amino)propyl]phosphonic acid]",138 nM
2,"CCN(CC1CC1)c1cc(C(=O)Nc2ccc(CNCCCP(=O)(O)O)cc2)cc2ccc(OC)cc12 [Compound 5, [3-({4-[({4-[(cyclopropylmethyl)(ethyl)amino]-6-methoxynaphthalen-2-yl}carbonyl)amino]benzyl}amino)propyl]phosphonic acid]",401 nM

# The remaining lines, values ahead:
row,EC50,SMILES
1,95 nM,"CCN(CC)c1cc(C(=O)Nc2ccc(CNCCCP(=O)(O)O)cc2)cc2ccc(OC)cc12 [Compound 7, (3-{[4-({[4-(diethylamino)-6-methoxynaphthalen-2-yl]carbonyl}amino)benzyl]amino}propyl)phosphonic acid]"
2,160 nM,"CCCN(C)c1cc(C(=O)Nc2ccc(CNCCCP(=O)(O)O)cc2)cc2ccc(OC)cc12 [Compound 8, [3-({4-[({6-methoxy-4-[methyl(propyl)amino]naphthalen-2-yl}carbonyl)amino]benzyl}amino)propyl]phosphonic acid]"
3,494 nM,"COc1ccc2cc(C(=O)Nc3ccc(CNCCCP(=O)(O)O)cc3)cc(N(C)C)c2c1 [Compound 9, (3-{[4-({[4-(dimethylamino)-6-methoxynaphthalen-2-yl]carbonyl}amino)benzyl]amino}propyl)phosphonic acid]"
